According to patent US20200163984A1, “USE OF ISOVALERYL SPIRAMYCIN I, II AND/OR III IN MANUFACTURING MEDICAMENT FOR TREATING AND/OR PREVENTING TUMOR, AND MEDICAMENT” (SHENYANG FUYANG PHARMACEUTICAL TECHNOLOGY CO., LTD., priority 2017, published 2020):

Columns and labels:
[1] = system: transplanted tumor of human lymphoma cell U937; experiment: U937 transplanted tumor in nude mice; conditions: for Tumor Volume (mm3) (d 1): d1
Experimental: (§1) U937 cells in a logarithmic growth phase were taken and subjected to a trypan blue exclusion experiment showing that the cell viability was more than 95%, then the cells were subjected to trypsinization, centrifugation, and supernatant removal. Then cell concentration was adjusted to 1×10^7/ml with matrigel, then each nude mouse was inoculated subcutaneously with 0.2 ml of cells at its right armpit and recorded as the first day of inoculation. When the tumor grows to be greater than or equal to 100 mm^3, the mice were randomly divided into 11 groups with 6 mice in each group: a model group, a cyclophosphamide group, isovaleryl spiramycin I groups with doses of 25, 50 and 100 mg/kg, isovaleryl spiramycin II groups with doses of 25, 50 and 100 mg/kg, and isovaleryl spiramycin III groups with doses of 25, 50 and 100 mg/kg. Each group was continuously administered intragastrically for 30 days with a dose of 20 ml/kg. The mice were sacrificed the next day after drug withdrawal and the indicators were tested. The long diameter and short diameter of the tumor, and the body weight of each mouse were recorded every 3 days from drug administration to nude mouse sacrifice.
(§2) The body weight of the nude mice and the long diameter (a) and short diameter (b) of the transplanted tumor were measured every 3 days, and the tumor volume (v), relative tumor volume (RTV) and relative tumor proliferation rate (T/C) are calculated respectively according to the following formulas, wherein V=a×b^2/2; RTV=V/V0 (V0 is the tumor volume before administration, V is the tumor volume before sacrifice), and T/C (%)=treatment group RTV/model control group RTV×100%.
(§3) Each mouse was weighed and sacrificed. After the tumor was completely stripped off from the body of the mouse, the non-tumor tissues such as blood stains and fat were removed to weigh the tumor and calculate the tumor growth inhibition rate. The average tumor weight of each group of mice is used as an indicator of efficacy. Tumor growth inhibition rate (%)=(1−the average tumor weight of the treatment group/the average tumor weight of the model group)×100%.

[2] = system: transplanted tumor of human cervical cancer cell HeLa; experiment: HeLa transplanted tumor in nude mice; conditions: for Tumor Volume (mm3) (d 1): d1
Experimental: as §1, with “HeLa” for “U937”
as §2, §3

[3] = system: transplanted tumor of HT-29 cells; experiment: HT-29 transplanted tumor in nude mice; conditions: for Inhibition Rate (%) / Tumor Weight: HT-29 nude mice; for Tumor Volume (mm3) (d30): d 30
Experimental: as §1, with “Then” for “U937 cells in a logarithmic growth phase were taken and subjected to a trypan blue exclusion experiment showing that the cell viability was more than 95%, then the cells were subjected to trypsinization, centrifugation, and supernatant removal. Then”, “group:” for “group: a model group, a cyclophosphamide group,”
as §2, §3

[4] = U937, high dose (100 mg/kg in method) i.g. 30 days
[5] = U937, low dose (25 mg/kg in method) i.g. 30 days
[6] = U937, medium dose (50 mg/kg in method) i.g. 30 days
[7] = HeLa, high dose (100 mg/kg in method) i.g. 30 days
[8] = HeLa, low dose (25 mg/kg in method) i.g. 30 days
[9] = HeLa, medium dose (50 mg/kg in method) i.g. 30 days
[10] = HT-29, high dose (100 mg/kg in method) i.g. 30 days
[11] = HT-29, low dose (25 mg/kg in method) i.g. 30 days
[12] = HT-29, medium dose (50 mg/kg in method) i.g. 30 days

## CCC(=O)O[C@@H]1CC(=O)O[C@H](C)C/C=C/C=C/[C@H](O[C@H]2CC[C@H](N(C)C)[C@@H](C)O2)[C@H](C)C[C@H](CC=O)[C@H](O[C@@H]2O[C@H](C)[C@@H](O[C@H]3C[C@@](C)(O)[C@@H](OC(=O)CC(C)C)[C@H](C)O3)[C@H](N(C)C)[C@H]2O)[C@H]1OC [Isovaleryl spiramycin III, isovaleryl spiramycin III]
[1]; [4]
  Relative Tumor Proliferation Rate (T/C): 38.66%
  tumor growth inhibition rate: 61.77%
[1]; [5]
  Relative Tumor Proliferation Rate (T/C): 63.36%
  tumor growth inhibition rate: 41.19%
[1]; U937, low, medium and high doses, P<0.05
  tumor volume and relative tumor volume compared with the model group: significantly lower
[1]; [6]
  Relative Tumor Proliferation Rate (T/C): 49.30%
  tumor growth inhibition rate: 53.03%
[1]; U937 nude mice, 12.5 mg/kg
  Inhibition Rate (%): 41.19%
  Relative Tumor Proliferation Rate (T/C): 63.36%
  Relative Tumor Volume (RTV): 10.80 ± 3.02
  Tumor Weight: 1.14 ± 0.54 g
  Tumor Volume (mm3) (d 1): 119.70 ± 18.30 mm3
  Tumor Volume (mm3) (d30): 1314.25 ± 479.76 mm3
[1]; U937 nude mice, 25 mg/kg
  Inhibition Rate (%): 53.03%
  Relative Tumor Proliferation Rate (T/C): 49.30%
  Relative Tumor Volume (RTV): 8.40 ± 2.25
  Tumor Weight: 0.91 ± 0.51 g
  Tumor Volume (mm3) (d 1): 112.93 ± 27.42 mm3
  Tumor Volume (mm3) (d30): 939.79 ± 296.72 mm3
[1]; U937 nude mice, 50 mg/kg
  Inhibition Rate (%): 61.77%
  Relative Tumor Proliferation Rate (T/C): 38.66%
  Relative Tumor Volume (RTV): 6.59 ± 0.90
  Tumor Weight: 0.74 ± 0.18 g
  Tumor Volume (mm3) (d 1): 112.85 ± 21.90 mm3
  Tumor Volume (mm3) (d30): 728.49 ± 51.66 mm3
[1]; mouse, in vivo
  mouse weight compared with the model group: no significant changes
[1]; mouse, in vivo, 12.5 mg/kg
  Body Weight (g) (d1): 20.84 ± 0.68 g
  Body Weight (g) (d30): 20.92 ± 0.63 g
[1]; mouse, in vivo, 25 mg/kg
  Body Weight (g) (d1): 20.91 ± 0.58 g
  Body Weight (g) (d30): 20.74 ± 0.352 g
[1]; mouse, in vivo, 50 mg/kg
  Body Weight (g) (d1): 21.16 ± 0.61 g
  Body Weight (g) (d30): 21.24 ± 0.50 g
[2]; HeLa nude mice, 12.5 mg/kg
  Inhibition Rate (%): 39.33%
  Relative Tumor Proliferation Rate (T/C): 62.92%
  Relative Tumor Volume (RTV): 1.43 ± 1.47
  Tumor Weight: 1.17 ± 0.64 g
  Tumor Volume (mm3) (d 1): 123.36 ± 21.45 mm3
  Tumor Volume (mm3) (d30): 1281.92 ± 242.71 mm3
[2]; HeLa nude mice, 25 mg/kg
  Inhibition Rate (%): 52.41%
  Relative Tumor Proliferation Rate (T/C): 52.05%
  Relative Tumor Volume (RTV): 8.63 ± 3.37
  Tumor Weight: 0.92 ± 0.49 g
  Tumor Volume (mm3) (d 1): 115.2 ± 27.18 mm3
  Tumor Volume (mm3) (d30): 1007.46 ± 481.36 mm3
[2]; HeLa nude mice, 50 mg/kg
  Inhibition Rate (%): 61.68%
  Relative Tumor Proliferation Rate (T/C): 39.33%
  Relative Tumor Volume (RTV): 6.52 ± 0.73
  Tumor Weight: 0.75 ± 0.11 g
  Tumor Volume (mm3) (d 1): 113.35 ± 20.84 mm3
  Tumor Volume (mm3) (d30): 727.16 ± 46.92 mm3
[2]; [7]
  Relative Tumor Proliferation Rate (T/C): 61.68%
  tumor growth inhibition rate: 61.68%
[2]; [8]
  Relative Tumor Proliferation Rate (T/C): 39.33%
  tumor growth inhibition rate: 39.33%
[2]; HeLa, low, medium and high doses, P<0.05
  tumor volume and relative tumor volume compared with the model group: significantly lower
[2]; [9]
  Relative Tumor Proliferation Rate (T/C): 52.41%
  tumor growth inhibition rate: 52.41%
[2]; mouse, in vivo
  mouse weight compared with the model group: no significant changes
[2]; mouse, in vivo, 12.5 mg/kg
  Body Weight (g) (d1): 21.30 ± 0.64 g
  Body Weight (g) (d30): 20.67 ± 0.45 g
[2]; mouse, in vivo, 25 mg/kg
  Body Weight (g) (d1): 20.87 ± 0.78 g
  Body Weight (g) (d30): 20.80 ± 0.55 g
[2]; mouse, in vivo, 50 mg/kg
  Body Weight (g) (d1): 21.09 ± 0.51 g
  Body Weight (g) (d30): 21.10 ± 0.52 g
[3]; [10]
  Relative Tumor Proliferation Rate (T/C): 35.63%
  tumor growth inhibition rate: 63.19%
[3]; [11]
  Relative Tumor Proliferation Rate (T/C): 85.54%
  tumor growth inhibition rate: 19.22%
[3]; HT-29, low, medium and high doses, P<0.05
  tumor volume and relative tumor volume compared with the model group: significantly lower
[3]; [12]
  Relative Tumor Proliferation Rate (T/C): 53.48%
  tumor growth inhibition rate: 41.35%
[3]; 25 mg/kg
  Inhibition Rate (%): 19.22%
  Tumor Weight: 1.90 ± 0.39 g
[3]; 50 mg/kg
  Inhibition Rate (%): 41.35%
  Tumor Weight: 1.38 ± 0.37 g
[3]; 100 mg/kg
  Inhibition Rate (%): 63.19%
  Tumor Weight: 0.87 ± 0.34 g
[3]; dose 25 mg/kg
  Relative Tumor Proliferation Rate (T/C): 85.54%
  Relative Tumor Volume (RTV): 12.32 ± 4.51
  Tumor Volume (mm3) (d 1): 154.49 ± 33.07 mm3
  Tumor Volume (mm3) (d30): 1803.16 ± 368.50 mm3
[3]; dose 50 mg/kg
  Relative Tumor Proliferation Rate (T/C): 53.48%
  Relative Tumor Volume (RTV): 7.70 ± 1.65
  Tumor Volume (mm3) (d 1): 161.76 ± 30.69 mm3
  Tumor Volume (mm3) (d30): 1252.64 ± 404.06 mm3
[3]; dose 100 mg/kg
  Relative Tumor Proliferation Rate (T/C): 35.63%
  Relative Tumor Volume (RTV): 5.13 ± 1.13
  Tumor Volume (mm3) (d 1): 160.38 ± 38.86 mm3
  Tumor Volume (mm3) (d30): 826.76 ± 259.70 mm3
[3]; mouse, in vivo
  mouse weight compared with the model group: no significant changes
[3]; mouse, in vivo, 25 mg/kg
  Body Weight (g) (d1): 21.31 ± 1.23 g
  Body Weight (g) (d30): 21.19 ± 1.52 g
[3]; mouse, in vivo, 50 mg/kg
  Body Weight (g) (d1): 21.22 ± 1.24 g
  Body Weight (g) (d30): 21.00 ± 0.98 g
[3]; mouse, in vivo, 100 mg/kg
  Body Weight (g) (d1): 21.34 ± 1.78 g
  Body Weight (g) (d30): 21.09 ± 1.43 g
